Source: US8759535B2, “Substituted fused imidazole derivatives, pharmaceutical compositions, and methods of use thereof” (High Point Pharmaceuticals, LLC, priority 2010, dated 2014)
Where a name gives a salt, the structure may show the parent alone.

These molecules were tested on HMOX1 (assay: HMOX1 Protein Assay (immunostaining of HO-1 in NHLF cells, GE InCell 1000)). Settings: Homo sapiens, fold change above DMSO treated cells, 3 μM compound (asterisk), 16 h.
Type: cell-based
Outline: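 NHLF cells seeded overnight in FGM-2, then exposed to compound or DMSO vehicle for 16 h, fixed, and immunostained for HO-1 with Hoechst nuclear counterstain; imaged on InCell 1000. Values are fold change over DMSO-treated cells, generally at 5 μM (0.8% DMSO), with asterisked entries at 3 μM.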
For `Cn1c(Nc2nc3ccc(C(F)(F)F)cc3s2)nc2cc(C(=O)NCC(=O)N3CC[C@H](O)C3)ccc21` [Example 403, 1-Methyl-2-(6-trifluoromethyl-benzothiazol-2-ylamino)-1H-benzoimidazole-5-carboxylic acid [2-((S)-3-hydroxy-pyrrolidin-1-yl)-2-oxo-ethyl]-amide], the fold induction at 3 µM was 24.8. `C[C@H](CO)OCCNC(=O)c1ccc2c(c1)nc(Nc1nc3ccc(OC(F)(F)F)cc3s1)n2C` [Example 242, 1-Methyl-2-(6-trifluoromethoxy-benzothiazol-2-ylamino)-1H-benzoimidazole-5-carboxylic acid [2-((R)-2-hydroxy-1-methyl-ethoxy)-ethyl]-amide] gave a fold induction at 3 µM of 28.1. `Cn1c(Nc2nc3ccc(C(F)(F)F)cc3s2)nc2cc(C(=O)NCC(=O)N3CC[C@@H](O)C3)ccc21` [Example 402, 1-Methyl-2-(6-trifluoromethyl-benzothiazol-2-ylamino)-1H-benzoimidazole-5-carboxylic acid [2-((R)-3-hydroxy-pyrrolidin-1-yl)-2-oxo-ethyl]-amide] was tested, and the fold induction at 3 µM was 24. Work on `Cn1c(Nc2nc3ccc(Cl)cc3s2)nc2cc(C(=O)NCC(=O)N3CCC[C@H](O)C3)ccc21` [Example 433, 2-(6-Chloro-benzothiazol-2-ylamino)-1-methyl-1H-benzoimidazole-5-carboxylic acid [2-((S)-3-hydroxy-piperidin-1-yl)-2-oxo-ethyl]-amide] yielded a fold induction at 3 µM of 29. `CC(O)CCNC(=O)c1ccc2c(c1)nc(Nc1nc3ccc(Cl)cc3s1)n2C` (stereo not shown) [Example 215, 2-(6-Chloro-benzothiazol-2-ylamino)-1-methyl-1H-benzoimidazole-5-carboxylic acid (3-hydroxy-butyl)-amide] was tested, and the fold induction at 3 µM was 16.

Same assay, conditions: Homo sapiens, fold change above DMSO treated cells, 5 μM compound, 16 h
In the case of `Cn1c(Nc2nc3ccc(Cl)cc3s2)nc2cc(C(=O)NCC(=O)N3CCN(S(C)(=O)=O)CC3)ccc21` [Example 429, 2-(6-Chloro-benzothiazol-2-ylamino)-1-methyl-1H-benzoimidazole-5-carboxylic acid [2-(4-methanesulfonyl-piperazin-1-yl)-2-oxo-ethyl]-amide], the fold induction at 5 µM is reported as 21.4. For `Cn1c(Nc2nc3ccc(OC(F)(F)F)cc3s2)nc2cc(C(=O)NCCN3CCOCC3)c(F)cc21` [Example 59, 6-Fluoro-1-methyl-2-(6-trifluoromethoxy-benzothiazol-2-ylamino)-1H-benzoimidazole-5-carboxylic acid (2-morpholin-4-yl-ethyl)-amide], the fold induction at 5 µM was 49.8. With `CCn1c(Nc2nc3ccc(Cl)cc3s2)nc2cc(C(=O)NC)ccc21` [Example 174, 2-(6-Chloro-benzothiazol-2-ylamino)-1-ethyl-1H-benzoimidazole-5-carboxylic acid methylamide] the fold induction at 5 µM was 26.2. `COCCNC(=O)c1ccc2c(c1)nc(Nc1nc3ccc(F)cc3s1)n2C` [Example 125, 2-(6-Fluoro-benzothiazol-2-ylamino)-1-methyl-1H-benzimidazole-5-carboxylic acid (2-methoxy-ethyl)-amide] was tested, and the fold induction at 5 µM was 25.9. Work on `Cn1c(Nc2nc3ccc(OC(F)(F)F)cc3s2)nc2cc(C(=O)NCCN3CCCC3=O)ccc21` [Example 329, 1-Methyl-2-(6-trifluoromethoxy-benzothiazol-2-ylamino)-1H-benzoimidazole-5-carboxylic acid [2-(2-oxo-pyrrolidin-1-yl)-ethyl]-amide] yielded a fold induction at 5 µM of 52.2. For `CNCCNC(=O)c1ccc2c(c1)nc(Nc1nc3ccc(OC(F)(F)F)cc3s1)n2C` [Example 105, 1-Methyl-2-(6-trifluoromethoxy-benzothiazol-2-ylamino)-1H-benzoimidazole-5-carboxylic acid (2-methylamino-ethyl)-amide], the fold induction at 5 µM was 17.5. `CCN(CC)c1cc2c(cc1C(=O)OC)nc(Nc1nc3ccc(OC(F)(F)F)cc3s1)n2C` [Example 69, 6-Diethylamino-1-methyl-2-(6-trifluoromethoxy-benzothiazol-2-ylamino)-1H-benzoimidazole-5-carboxylic acid methyl ester] gave a fold induction at 5 µM of 4.7. `CSCCCNC(=O)c1ccc2c(c1)nc(Nc1nc3ccc(OC(F)(F)F)cc3s1)n2C` [Example 108, 1-Methyl-2-(6-trifluoromethoxy-benzothiazol-2-ylamino)-1H-benzoimidazole-5-carboxylic acid (3-methylsulfanyl-propyl)-amide] showed a fold induction at 5 µM of 18.3. With `COCCNC(=O)c1ccc2c(c1)nc(Nc1nc3ccc(OC(F)(F)F)cc3s1)n2C` [Example 8, 1-Methyl-2-(6-trifluoromethoxy-benzothiazol-2-ylamino)-1H-benzoimidazole-5-carboxylic acid (2-methoxy-ethyl)-amide] the fold induction at 5 µM was 18.3. For `Cn1c(Nc2nc3ccc(OC(F)(F)F)cc3s2)nc2cc(C(=O)NCCO)ccc21` [Example 10, 1-Methyl-2-(6-trifluoromethoxy-benzothiazol-2-ylamino)-1H-benzoimidazole-5-carboxylic acid (2-hydroxy-ethyl)-amide], the fold induction at 5 µM was 19.9. Molecule `CCNC(=O)c1ccc2c(c1)nc(Nc1nc3cc(F)c(F)cc3s1)n2C` [Example 35, 2-(5,6-Difluoro-benzothiazol-2-ylamino)-1-methyl-1H-benzoimidazole-5-carboxylic acid ethylamide] has a fold induction at 5 µM of 12.4. Molecule `CNC1CCN(C(=O)CNC(=O)c2ccc3c(c2)nc(Nc2nc4ccc(Cl)cc4s2)n3C)CC1` [Example 454, 2-(6-Chloro-benzothiazol-2-ylamino-1-methyl-1H-benzoimidazole-5-carboxylic acid [2-(4-methylamino-piperidin-1-yl)-2-oxo-ethyl]-amide hydrochloride] has a fold induction at 5 µM of 62.2. Molecule `CN(C)C(=O)CNC(=O)c1ccc2c(c1)nc(Nc1nc3ccc(Cl)cc3s1)n2C` [Example 133, 2-(6-Chloro-benzothiazol-2-ylamino)-1-methyl-1H-benzimidazole-5-carboxylic acid dimethylcarbamoylmethyl-amide] has a fold induction at 5 µM of 45.9. Molecule `CN[C@H]1CCN(C(=O)CNC(=O)c2ccc3c(c2)nc(Nc2nc4ccc(OC(F)(F)F)cc4s2)n3C)C1` [Example 414, 1-Methyl-2-(6-trifluoromethoxy-benzothiazol-2-ylamino)-1H-benzoimidazole-5-carboxylic acid [2-((S)-3-methylamino-pyrrolidin-1-yl)-2-oxo-ethyl]-amide hydrochloride] has a fold induction at 5 µM of 25.7. `CCOCCNC(=O)c1cnc2c(c1)nc(Nc1nc3ccc(OC(F)(F)F)cc3s1)n2C` [Example 75, 3-Methyl-2-(6-trifluoromethoxy-benzothiazol-2-ylamino)-3H-imidazo[-4,5-b]pyridine-6-carboxylic acid (2-ethoxy-ethyl)-amide] showed a fold induction at 5 µM of 29. `COC(=O)CCNC(=O)c1ccc2c(c1)nc(Nc1nc3ccc(OC(F)(F)F)cc3s1)n2C` [Example 97, 3-{[1-Methyl-2-(6-trifluoromethoxy-benzothiazol-2-ylamino)-1H-benzoimidazole-5-carbonyl]-amino}-propionic acid methyl ester] gave a fold induction at 5 µM of 19.2. `Cn1c(Nc2nc3ccc(OC(F)(F)F)cc3s2)nc2cc(C(=O)NCCC(=O)OC(C)(C)C)ccc21` [Example 136, 3-{[1-Methyl-2-(6-trifluoromethoxy-benzothiazol-2-ylamino)-1H-benzimidazole-5-carbonyl]-amino}-propionic acid tert-butyl ester] gave a fold induction at 5 µM of 5.7. `CCn1c(Nc2nc3ccc(C(F)(F)F)cc3s2)nc2cc(C(=O)NCC(=O)N(C)C)ccc21` [Example 187, 1-Ethyl-2-(6-trifluoromethyl-benzothiazol-2-ylamino)-1H-benzoimidazole-5-carboxylic acid dimethylcarbamoylmethyl-amide] was tested, and the fold induction at 5 µM was 18.4. Work on `COCCNC(=O)c1ccc2c(c1)nc(Nc1nc3cc(F)c(F)cc3s1)n2C` [Example 37, 2-(5,6-Difluoro-benzothiazol-2-ylamino)-1-methyl-1H-benzoimidazole-5-carboxylic acid (2-methoxy-ethyl)-amide] yielded a fold induction at 5 µM of 16.4. With `CSCCNC(=O)c1ccc2c(c1)nc(Nc1nc3ccc(S(C)(=O)=O)cc3s1)n2C` [Example 130, 2-(6-Methanesulfonyl-benzothiazol-2-ylamino)-1-methyl-1H-benzimidazole-5-carboxylic acid (2-methylsulfanyl-ethyl)-amide] the fold induction at 5 µM was 5.3. `COCCNC(=O)c1ccc2c(c1)nc(Nc1nc3ccc(Cl)cc3s1)n2C` [Example 31, 2-(6-Chloro-benzothiazol-2-ylamino)-1-methyl-1H-benzoimidazole-5-carboxylic acid (2-methoxy-ethyl)-amide] was tested, and the fold induction at 5 µM was 23.6. `Cn1c(Nc2nc3ccc(OC(F)(F)F)cc3s2)nc2cc(C(=O)NCCOCCF)ccc21` [Example 47, 1-Methyl-2-(6-trifluoromethoxy-benzothiazol-2-ylamino)-1H-benzoimidazole-5-carboxylic acid [2-(2-fluoro-ethoxy)-ethyl]-amide] was tested, and the fold induction at 5 µM was 11.3. With `Cn1c(Nc2nc3ccc(Cl)cc3s2)nc2cc(C(=O)NCCN)ccc21` [Example 343, 2-(6-Chloro-benzothiazol-2-ylamino)-1-methyl-1H-benzoimidazole-5-carboxylic acid (2-amino-ethyl)-amide hydrochloride] the fold induction at 5 µM was 21.1. With `CN1CCCCC1CNC(=O)c1ccc2c(c1)nc(Nc1nc3ccc(Cl)cc3s1)n2C` (stereo not shown) [Example 318, 2-(6-Chloro-benzothiazol-2-ylamino)-1-methyl-1H-benzoimidazole-5-carboxylic acid (1-methyl-piperidin-2-ylmethyl)-amide] the fold induction at 5 µM was 11.9. `COCCNC(=O)c1ccc2c(c1)nc(Nc1nc3cc(OC(F)(F)F)ccc3s1)n2C` [Example 116, 1-Methyl-2-(5-trifluoromethoxy-benzothiazol-2-ylamino)-1H-benzimidazole-5-carboxylic acid (2-methoxy-ethyl)-amide] showed a fold induction at 5 µM of 22.3. In the case of `Cn1c(Nc2nc3ccc(OC(F)(F)F)cc3s2)nc2cc(C(=O)NCCN3CCC(O)CC3)ccc21` [Example 192, 1-Methyl-2-(6-trifluoromethoxy-benzothiazol-2-ylamino)-1H-benzoimidazole-5-carboxylic acid [2-(4-hydroxy-piperidin-1-yl)-ethyl]-amide], the fold induction at 5 µM is reported as 28.8.
